The target of assay [1] is T1, human topoisomerase I (topo70) in covalent complex with duplex 22 mer DNA (Homo sapiens, UniProt P11387).
T1 construct: residues 175 to 765 of the natural protein plus an N-terminal initiating methionine; initiating methionine (one added Met before residue 175) (N); made in house; host or cells: insect cells (recombinant baculovirus, pFastBac-topo70 wt)
T1 sequence (P11387 175-765): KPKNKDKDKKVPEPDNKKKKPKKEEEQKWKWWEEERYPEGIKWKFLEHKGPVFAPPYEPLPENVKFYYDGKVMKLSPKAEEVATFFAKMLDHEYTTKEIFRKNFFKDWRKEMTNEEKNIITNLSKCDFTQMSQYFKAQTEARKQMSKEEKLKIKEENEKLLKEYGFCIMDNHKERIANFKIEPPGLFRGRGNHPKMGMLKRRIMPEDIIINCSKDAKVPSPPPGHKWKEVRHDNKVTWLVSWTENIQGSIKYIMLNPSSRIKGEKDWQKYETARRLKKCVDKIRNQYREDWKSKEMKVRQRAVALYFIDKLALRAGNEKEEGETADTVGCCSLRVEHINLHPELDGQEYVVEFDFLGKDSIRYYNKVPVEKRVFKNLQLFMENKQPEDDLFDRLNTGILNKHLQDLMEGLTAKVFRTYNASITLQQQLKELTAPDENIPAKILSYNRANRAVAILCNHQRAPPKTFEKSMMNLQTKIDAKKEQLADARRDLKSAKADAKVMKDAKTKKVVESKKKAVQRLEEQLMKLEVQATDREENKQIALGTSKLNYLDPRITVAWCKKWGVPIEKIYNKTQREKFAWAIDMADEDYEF
The assay can be described thus: X-ray crystal structure of ternary topo70-DNA-compound complex. It is filed as binding.

For assay [2] the following is noted: Giovanella et al., Science 1989; cited from earlier work.
For a further assay, the system named is Topo I. As to conditions: Hsiang et al., Cancer Res 1989; cited from earlier work.
The target in assay [3] is T2, reconstituted "linker-less" human Topo I (Homo sapiens, UniProt P11387).
T2 sequence (P11387 175-659 limits assumed): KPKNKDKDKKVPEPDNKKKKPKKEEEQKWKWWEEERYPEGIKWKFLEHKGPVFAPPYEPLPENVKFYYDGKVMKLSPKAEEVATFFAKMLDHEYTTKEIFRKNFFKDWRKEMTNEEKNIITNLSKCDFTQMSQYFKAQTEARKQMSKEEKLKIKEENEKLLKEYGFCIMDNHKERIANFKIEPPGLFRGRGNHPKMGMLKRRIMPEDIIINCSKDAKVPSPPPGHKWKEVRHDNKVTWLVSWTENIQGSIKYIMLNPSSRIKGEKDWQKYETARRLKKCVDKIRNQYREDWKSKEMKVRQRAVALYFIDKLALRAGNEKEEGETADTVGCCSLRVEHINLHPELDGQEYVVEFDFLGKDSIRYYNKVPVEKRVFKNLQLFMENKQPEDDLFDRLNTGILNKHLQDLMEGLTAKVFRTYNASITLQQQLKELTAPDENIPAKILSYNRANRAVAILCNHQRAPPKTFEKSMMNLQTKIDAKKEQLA
T2 sequence (P11387 713-765 limits assumed): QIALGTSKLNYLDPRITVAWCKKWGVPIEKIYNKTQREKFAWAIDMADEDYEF
As to conditions: Stewart et al., J. Biol. Chem. 1999; cited from earlier work.

Where [4] appears, read: unrestrained full matrix refinement of occupancy factors, standard uncertainty 7%.

The structures appear in SMILES notation.

`CCOc1ccc(-c2nc3ccc(-c4nc5ccc(N6CCN(C)CC6)cc5[nH]4)cc3[nH]2)cc1` [Hoecsht-33342]: the “binding site relative to camptothecin” value in assay [1] (Form 11 structure) was “do not bind at the same site as camptothecin”.

`CC[C@@](O)(C(=O)[O-])c1cc2n(c(=O)c1CO)Cc1cc3ccccc3nc1-2.[Na+]` [sodium carboxylate form of camptothecin]: the “activity in in vivo cell killing assays” value in assay [2] was “does have”. Moreover, the “Topo I inhibitory activity in vitro” value with Topo I is recorded as “does have Topo I inhibitory activity in vitro”.

As to `CC[C@@]1(O)C(=O)OCc2c1cc1n(c2=O)Cc2cc3c(CN(C)C)c(O)ccc3nc2-1` [topotecan], the “binding mode in the crystal structure” value in assay [1] (Form 9-TTC, Form 9-AG260, Form 10 structures) was “intercalate at the site of DNA cleavage”. Besides, in assay [1] (setting [4]), the “occupancy of closed lactone form in the bound complex” value is on record as 63% and the “occupancy of open carboxylate form in the bound complex” value came to 37%. Further, the “relaxation-inhibition effect on linker-less Topo I” value in assay [3] is “resistant to the relaxation-inhibition effect”.

Source of the values: patent publication US20050003502A1 (priority 2000, published 2005).
